Experimental data taken from US8053435B2, “Naphthalenyloxypropenyl derivatives having inhibitory activity against histone deacetylase and pharmaceutical composition comprising the same” (Korea Research Institute of Chemical Technology, priority 2006, dated 2011).
Like-named read-outs stand apart in the source and are kept apart here.

Experiments:
[1] = tested on: colon cancer cells HCT116; test: Inhibitory activity against proliferation of cancer cells, SRB (Sulforhodamine B) analysis; type: cell-based; conditions: Homo sapiens, read-out: Inhibitory conc. against cancer cell growth (EC50 μM) HCT116
Procedure: Cancer cells were inoculated into a 96-well microplate at a concentration of 1×10^3˜3×10^3 cells/well and incubated under the condition of 37° C., 5% CO2 for 24 hrs. After the incubation was completed, 0.2, 1, 5, 25, or 100 μM of each of the compounds of Examples was added to the plate, and then the reactant was incubated for 48 hrs. After the substrate was stained with SRB, the anti-cancer activity was determined by comparing the amount of protein in the cells treated with the compound of Examples with that of protein in untreated cells.
Specifically, after the incubation was completed, the culture medium was removed from each well, and the cells were washed 3 times with PBS (pH 7.4). Then, a solution of 50% trichloroacetic acid (TCA) was added to each well in an amount of 50 μl/well at 4° C. for 1 hr to fix them. Then, the microplate was washed 5 times with distilled water and dried in air. […]
50 μl of a staining solution prepared by dissolving 0.4% SRB in 1% acetic acid was added to the wells, and the microplate was kept at room temperature for 1 hr. The well plate was then washed 5 times with 1% acetic acid to remove unbound SRB and dried in air. The stained cells were treated with 150 μl/well of 10 mM Tris-HCl solution (pH 10.5) to elute SRB from the cells, and the absorbance of the cells treated with the compounds of examples at 540 nm was measured, based on the absorbance of an untreated cell. The EC50 value representing inhibition of the cancer cell growth by the extent of 50% was calculated from the measured absorbance, and the results are shown in Table 6.

HDAC = test: Inhibitory activity against HDAC (BIOMOL Quantizyme Assay system, Fluor de Lys substrate); type: biochemical; conditions: HeLa nuclear extract as source of HDAC enzymes, enzyme reaction 1 hr, read-out: IC50 (HDAC inhibitory concentration)
Procedure: HDAC activity was analyzed using BIOMOL Quantizyme™ Assay system which comprised two steps of 1) enzyme reaction between HDAC and a substrate and 2) determination of the level of HDAC inhibitory activity.
(§1) 0.5 μl of HeLa nuclear organic layer (10 μM) (a source of HDAC enzymes) was then added thereto to a final concentration of 100 nM. The enzyme reaction was carried out for 1 hr.
Subsequently, in step 2), 2 μM tricostatin A was added to 50 μl of Flour de Lys™ developer, followed by allowing the mixture to react at room temperature for 15 minutes. The light excited at 355 nm and emitted at 460 nm from the fluorophore was measured with a fluorometric plate reader. The intensity of the fluorescence increases as the enzyme activity is higher. The HDAC inhibitory activity of each of the test compounds was determined and compared with that of the control.
0.5 μl of HeLa nuclear organic layer (10 μM) (a source of HDAC enzymes) was then added thereto to a final concentration of 100 nM, The enzyme reaction was carried out for 1 hr.
as §1, §1

[2] = HCT-116, Table 2, 48 hrs incubation with compound
[3] = HCT-116, Table 4, 48 hrs incubation with compound

Compound | EC50 [1, 2] [µM] | IC50 (HDAC; Table 1, formula (1) series) [nM] | EC50 [1, 3] [µM] | IC50 (HDAC; Table 3, formula (2) series) [nM]
CN1CCC(NC(=O)/C(=C/c2ccc(C(=O)NO)cc2)COc2cccc3ccccc23)CC1 [Example 1-1, (E)-4-(3-(1-Methylpiperidin-4-ylamino)-2-((naphthalen-1-yloxy)methyl)-3-oxoprop-1-enyl)-N-hydroxybenzamide] | 0.54 | 6 |  | 
CN(C)CC(C)(C)CNC(=O)/C(=C/c1ccc(C(=O)NO)cc1)COc1cccc2ccccc12 [Example 1-4] | 0.5 | 14 |  | 
COCC(C)NC(=O)/C(=C/c1ccc(C(=O)NO)cc1)COc1cccc2ccccc12 (stereo not drawn) [Example 1-6, (E)-4-(3-(1-Methoxypropan-2-ylamino)-2-((naphthalen-1-yloxy)methyl)-3-oxoprop-1-enyl)-N-hydroxybenzamide] | 0.63 | 23 |  | 
COc1ccc(CNC(=O)/C(=C/c2ccc(C(=O)NO)cc2)COc2cccc3ccccc23)cc1 [Example 1-7, (E)-4-(3-(4-Methoxybenzylamino)-2-((naphthalen-1-yloxy)methyl)-3-oxoprop-1-enyl)-N-hydroxybenzamide] | 0.7 | 10 |  | 
O=C(NCc1ccco1)/C(=C/c1ccc(C(=O)NO)cc1)COc1cccc2ccccc12 [Example 1-12, (E)-4-(3-(Furan-2-ylmethylamino)-2-((naphthalen-1-yloxy)methyl)-3-oxoprop-1-enyl)-N-hydroxybenzamide] | 0.6 | 7 |  | 
CN(C)c1ccc(CNC(=O)/C(=C/c2ccc(C(=O)NO)cc2)COc2cccc3ccccc23)cc1 [Example 1-13, (E)-4-(3-(4-(Dimethylamino)benzylamino)-2-((naphthalen-1-yloxy)methyl)-3-oxoprop-1-enyl)-N-hydroxybenzamide] | 0.8 | 20 |  | 
CCN1CCC(NC(=O)/C(=C/c2ccc(C(=O)NO)cc2)COc2cccc3ccccc23)CC1 [Example 1-17, (E)-4-(3-(1-Ethylpiperidin-4-ylamino)-2-((naphthalen-1-yloxy)methyl)-3-oxoprop-1-enyl)-N-hydroxybenzamide] | 0.5 | 8 |  | 
CN1CCCC1CCNC(=O)/C(=C/c1ccc(C(=O)NO)cc1)COc1cccc2ccccc12 (stereo not drawn) [Example 1-22, (E)-4-(3-(2-(1-Methylpyrrolidin-2-yl)ethylamino)-2-((naphthalen-1-yloxy)methyl)-3-oxo-1-propenyl)-N-hydroxy-benzamide] | 0.8 | 13 |  | 
CC(C)N1CCC(NC(=O)/C(=C/c2ccc(C(=O)NO)cc2)COc2cccc3ccccc23)CC1 [Example 1-23, (E)-4-(3-(1-Isopropylpiperidin-4-ylamino)-2-((naphthalen-1-yloxy)methyl)-3-oxoprop-1-enyl)-N-hydroxybenzamide] | 0.7 |  |  | 
(E)-(3-(3-(Pyrrolidin-1-yl)propylamino)-2-((naphthalen-1-yloxy)methyl)-3-oxoprop-1-enyl)-N-hydroxybenzamide [Example 1-20] |  | 6 |  | 

Now from value to compound:

EC50 [1, 2] [µM] | IC50 (HDAC; Table 1, formula (1) series) [nM] | EC50 [1, 3] [µM] | IC50 (HDAC; Table 3, formula (2) series) [nM] | Compound
 |  | 0.8 | 5 | COc1ccc(CNC(=O)/C(=C/CCCCC(=O)NO)COc2cccc3ccccc23)cc1 [Example 2-6, (E)-N8-Hydroxy-N1-(4-methoxybenzyl)-2-((naphthalen-1-yloxy)methyl)-2-octenediamide]
 |  | 0.7 | 14 | O=C(CCCCC=C(COc1cccc2ccccc12)C(=O)NCC1CCCO1)NO (stereo not drawn) [Example 2-8, (E)-N8-Hydroxy-2-((naphthalen-1-yloxy)methyl)-N1-(tetrahydrofuran-2-yl)methyl)-2-octenediamide]
 |  | 0.6 | 6 | O=C(CCCC/C=C(\COc1cccc2ccccc12)C(=O)NCc1ccco1)NO [Example 2-11, (E)-N1-(Furan-2-ylmethyl)-N8-hydroxy-2-((naphthalen-1-yloxy)methyl)-2-octenediamide]
 |  | 0.5 | 6 | CN(C)c1ccc(CNC(=O)/C(=C/CCCCC(=O)NO)COc2cccc3ccccc23)cc1 [Example 2-12, (E)-N1-(4-(Dimethylamino)benzyl)-N8-hydroxy-2-((naphthalen-1-yloxy)methyl)-2-octenediamide]
 |  | 0.6 | 24 | COCCNC(=O)/C(=C/CCCCC(=O)NO)COc1cccc2ccccc12 [Example 2-13, (E)-N8-Hydroxy-N1-(2-methoxyethyl)-2-((naphthalen-1-yloxy)methyl)-2-octenediamide]
 |  | 0.8 |  | O=C(CCCC/C=C(\COc1cccc2ccccc12)C(=O)NC1CCCCC1)NO [Example 2-14, (E)-N1-Cyclohexyl-N8-hydroxy-2-((naphthalen-1-yloxy)methyl)-2-octenediamide]
 |  | 0.4 | 8 | O=C(CCCC/C=C(\COc1cccc2ccccc12)C(=O)NCc1cccs1)NO [Example 2-15, (E)-N8-Hydroxy-2-((naphthalen-1-yloxy)methyl)-N1-(thiophen-2-ylmethyl)-2-octenediamide]
 |  | 0.7 | 17 | COc1ccc(CCNC(=O)/C(=C/CCCCC(=O)NO)COc2cccc3ccccc23)cc1 [Example 2-16, (E)-N8-Hydroxy-N1-(4-methoxyphenethyl)-2-((naphthalen-1-yloxy)methyl)-2-octenediamide]
 |  | 0.8 | 13 | O=C(CCCC/C=C(\COc1cccc2ccccc12)C(=O)NC1CCN(C2CCCC2)CC1)NO [Example 2-19, (E)-N1-(1-Cyclopentylpiperidin-4-yl)-N8-hydroxy-2-((naphthalen-1-yloxy)methyl)-2-octenediamide]
 |  | 0.9 | 7 | O=C(CCCC/C=C(\COc1cccc2ccccc12)C(=O)NC1CCN(Cc2ccccc2)C1)NO (stereo not drawn) [Example 2-20, (E)-N1-(1-Benzylpyrrolidin-3-yl)-N8-hydroxy-2-((naphthalen-1-yloxy)methyl)-2-octenediamide]
 |  | 1 | 12 | CC(C)N1CCC(NC(=O)/C(=C/CCCCC(=O)NO)COc2cccc3ccccc23)C1 (stereo not drawn) [Example 2-21, (E)-N8-Hydroxy-N1-(1-isopropylpyrrolidin-3-yl)-2-((naphthalen-1-yloxy)methyl)-2-octenediamide]
 |  | 0.5 | 10 | O=C(CCCC/C=C(\COc1ccc2ccccc2c1)C(=O)NC1CCN(C2CCCCC2)C1)NO (stereo not drawn) [Example 2-25, (E)-N1-(1-Cyclohexylpyrrolidin-3-yl)-N8-hydroxy-2-((naphthalen-2-yloxy)methyl)-2-octenediamide]
 |  | < 0.2 | 11 | O=C(CCCC/C=C(\COc1cccc2ccccc12)C(=O)NC1CCN(C2CC2)C1)NO (stereo not drawn) [Example 2-26, (E)-N1-(1-Cyclopropylpyrrolidin-3-yl)-N8-hydroxy-2-((naphthalen-1-yloxy)methyl)-2-octenediamide]
 |  | 0.32 | 16 | O=C(CCCC/C=C(\COc1cccc2ccccc12)C(=O)NC1CCN(C2CC2)CC1)NO [Example 2-27, (E)-N1-(1-Cyclopropylpiperidin-4-yl)-N8-hydroxy-2-((naphthalen-1-yloxy)methyl)-2-octenediamide]
 |  | 0.9 | 10 | CCN1CCC(NC(=O)/C(=C/CCCCC(=O)NO)COc2cccc3ccccc23)C1 (stereo not drawn) [Example 2-29, (E)-N1-(1-Ethylpyrrolidin-3-yl)-N8-hydroxy-2-((naphthalen-1-yloxy)methyl)-2-octenediamide]
 |  | 0.7 | 15 | CC(C)N1CCC(NC(=O)/C(=C/CCCCC(=O)NO)COc2cccc3ccccc23)CC1 [Example 2-30, (E)-N8-Hydroxy-N1-(1-isopropylpiperidin-4-yl)-2-((naphthalen-1-yloxy)methyl)-2-octenediamide]
 |  |  | 9 | (E)-N1-(2-(Diisopropylamino)ethyl)-N8-hydroxy-2-((naphthalen-1-yloxy)methyl)octenediamide [Example 2-4]
 |  |  | 21 | (E)-N1-(3-(Dimethylamino)-2,2-dimethylpropyl)-N8-hydroxy-2-((naphthalen-1-yloxy)methyl)octenediamide [Example 2-3]
